Source: the supplement of paper PMC11962398

Tests used:
BI-2493 [1] = compound: T1, C[C@H]1CNCCN1c1nccc(-c2noc3c2CCC[C@@]32CCCc3sc(N)c(C#N)c32)n1 [BI-2493]; settings: 5 days
Procedure: (§1)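 PRISM pooled barcoded cancer cell line viability screen (Broad Institute) with BI-2493 at 8 doses in threefold dilutions from 0.00457 to 10 µmol/L, 5-day treatment; curves fitted per cell line. IC50 is undefined (placeholder) for resistant lines. AUC is capped at 1, and sensitivity is reported as 1 − AUC.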

BI-2493 [2] = compound: T1, BI-2493; experiment: 1 - AUC of viability dose-response curve (sensitivity) (fraction); higher = more sensitive; settings: 5 days
Procedure: as §1

Test System | IC50 of cell viability (BI-2493 [1]) [µM] | 1 - AUC of viability dose-response curve (BI-2493 [2])
NCIH838_LUNG | 7.55 | 0.0686
NCIH841_LUNG | 6.98 | 0.162
NCIH1048_LUNG | 6.78 | 0.0696
NCIH1092_LUNG | 3.99 | 0.131
NCIH1299_LUNG | 8.5 | 0.0368
NCIH1339_LUNG | 6.82 | 0.0455
NCIH1341_LUNG | > 10 | 0.146
NCIH1355_LUNG | 2.46 | 0.219
NCIH1435_LUNG | 4.95 | 0.0748
NCIH1437_LUNG | 4.73 | 0.153
NCIH1563_LUNG | 9.88 | 0.00763
NCIH1568_LUNG | 7.78 | 0.0444
NCIH1573_LUNG | 7.27 | 0.0775
NCIH1581_LUNG | 8.08 | 0.0823
NCIH1623_LUNG | 9.93 | 0.0102
NCIH1648_LUNG | 1.57 | 0.26
NCIH1650_LUNG | 8.06 | 0.042
NCIH1694_LUNG | > 10 | 0.00415
NCIH1703_LUNG | > 10 | 0.0509

Test System | IC50 of cell viability (BI-2493 [1]) [µM] | 1 - AUC of viability dose-response curve (BI-2493 [2])
NCIH1792_LUNG | 1.04 | 0.342
NCIH1793_LUNG | 8.29 | 0.16
NCIH1838_LUNG | > 10 | 0.0993
NCIH1876_LUNG | 3.89 | 0.0823
NCIH1915_LUNG | 9.46 | 0.0137
NCIH1944_LUNG | 8.69 | 0.22
NCIH1975_LUNG | 6.8 | 0.0712
NCIH2004RT_SOFT_TISSUE | > 10 | 0.0737
NCIH2009_LUNG | 5.8 | 0.149
NCIH2023_LUNG | 2.57 | 0.208
NCIH2030_LUNG | 3.34 | 0.206
NCIH2077_LUNG | 8.95 | 0.182
NCIH2087_LUNG | 3.99 | 0.104
NCIH2110_LUNG | 6.61 | 0.0708
NCIH2122_LUNG | 3.6 | 0.138
NCIH2126_LUNG | 9.82 | 0.142
NCIH2170_LUNG | > 10 | 0.0861
NCIH2171_LUNG | 9.88 | 0.0377
